5 molecules from PubChem BioAssay AID254 (DTP/NCI, 2004) can be followed below.

The test system of this assay is L1210 leukemia iv in BDF1 mice, survival T/C. The experiment in a line: NCI In Vivo Anticancer Drug Screen. Data for tumor model L1210 Leukemia (intravenous) in B6D2F1 (BDF1) mice. The settings on record: endpoint: mean survival time, higher = longer survival. Here is the method: The antitumor activity of compounds was measured in mice bearing transplantable tumors. Survival or tumor size were measured and the results are expressed as the measurement made in the treated group (T) divided by the measurement made in the vehicle treated control group (C). The tumor model used in this assay is L1210 Leukemia (intravenous) in B6D2F1 (BDF1) mice

Where [1] appears, read: dose: 16.0 mg/kg/injection, schedule: Q01DX001 (ip), vehicle: other.
Setting [2] is: dose: 24.0 mg/kg/injection, schedule: Q01DX001 (ip), vehicle: other.
[3] abbreviates: dose: 36.0 mg/kg/injection, schedule: Q01DX001 (ip), vehicle: other.
Where [4] appears, read: dose: 4.0 mg/kg/injection, schedule: Q01DX001 (ip), vehicle: other.
Where [5] appears, read: dose: 8.0 mg/kg/injection, schedule: Q01DX001 (ip), vehicle: other.
Where [6] appears, read: dose: 33.0 mg/kg/injection, schedule: Q01DX001 (ip), vehicle: other.

The structures appear in SMILES notation. “And” between values parts separate entries of the source, which are not always exact repeats. Equal values may be shown once. Toxic doses and inconclusive results are not listed.

As for `CC1CCC(NC(=O)N(CCCl)N=O)CC1` (stereo unspecified), the T/C was 124 % of control (dose: 5.0 mg/kg/injection, schedule: Q04DX004 (ip), vehicle: other); 122 % of control (dose: 5.4 mg/kg/injection, schedule: Q01DX001 (oral), vehicle: other); 187 % of control (dose: 8.6 mg/kg/injection, schedule: Q04DX004 (ip), vehicle: saline with Tween-80); 182 % of control (dose: 10.0 mg/kg/injection, schedule: Q04DX004 (ip), vehicle: other); 152 % of control and 163 % of control (dose: 10.7 mg/kg/injection, schedule: Q01DX001 (ip), vehicle: saline with Tween-80); 165 % of control (dose: 12.0 mg/kg/injection, schedule: Q01DX001 (ip), vehicle: other). Moreover, the T/C runs as follows: (dose: 12.0 mg/kg/injection, schedule: Q01DX001 (oral), vehicle: other) 164 % of control and 187 % of control; (dose: 13.0 mg/kg/injection, schedule: Q04DX004 (ip), vehicle: saline with Tween-80) 849 % of control and 850 % of control; (dose: 15.0 mg/kg/injection, schedule: Q01DX001 (ip), vehicle: other) 352 % of control and 185 % of control and 332 % of control; (dose: 15.0 mg/kg/injection, schedule: Q04DX004 (ip), vehicle: other) 734 % of control; under setting [1], 102 % of control; (dose: 16.0 mg/kg/injection, schedule: Q01DX001 (ip), vehicle: saline with Tween-80) 189 % of control and 248 % of control. The T/C reads like this: (dose: 20.0 mg/kg/injection, schedule: Q01DX001 (ip), vehicle: other) 532 % of control and 303 % of control and 326 % of control; (dose: 20.0 mg/kg/injection, schedule: Q04DX004 (ip), vehicle: other) 463 % of control; (dose: 20.0 mg/kg/injection, schedule: Q04DX004 (ip), vehicle: saline with Tween-80) 983 % of control; under setting [2], 153 % of control; (dose: 24.0 mg/kg/injection, schedule: Q01DX001 (ip), vehicle: saline with Tween-80) 347 % of control and 453 % of control; (dose: 27.0 mg/kg/injection, schedule: Q01DX001 (oral), vehicle: other) 590 % of control and 633 % of control and 818 % of control. Also, the T/C (dose: 30.0 mg/kg/injection, schedule: Q01DX001 (ip), vehicle: other) is 683 % of control; the T/C (dose: 30.0 mg/kg/injection, schedule: Q04DX004 (ip), vehicle: other) was 819 % of control; the T/C (dose: 35.0 mg/kg/injection, schedule: Q01DX001 (ip), vehicle: other) was 761 % of control; the T/C under setting [3] was 153 % of control; the T/C (dose: 36.0 mg/kg/injection, schedule: Q01DX001 (ip), vehicle: saline with Tween-80) is 612 % of control; the T/C (dose: 36.0 mg/kg/injection, schedule: Q01DX001 (oral), vehicle: other) is 751 % of control and 753 % of control and 868 % of control. Moreover, the T/C (dose: 40.0 mg/kg/injection, schedule: Q01DX001 (oral), vehicle: other) was 633 % of control and 786 % of control and 818 % of control; the T/C (dose: 45.0 mg/kg/injection, schedule: Q01DX001 (oral), vehicle: other) was 574 % of control and 600 % of control; the T/C (dose: 50.0 mg/kg/injection, schedule: Q01DX001 (ip), vehicle: other) was 542 % of control and 661 % of control; the T/C (dose: 54.0 mg/kg/injection, schedule: Q01DX001 (ip), vehicle: other) is 202 % of control; the T/C (dose: 54.0 mg/kg/injection, schedule: Q01DX001 (ip), vehicle: saline with Tween-80) was 683 % of control and 875 % of control; the T/C (dose: 54.0 mg/kg/injection, schedule: Q01DX001 (oral), vehicle: other) was 810 % of control and 983 % of control and 179 % of control. Also, the T/C (dose: 55.0 mg/kg/injection, schedule: Q01DX001 (ip), vehicle: other) is 500 % of control and 295 % of control; the T/C (dose: 60.0 mg/kg/injection, schedule: Q01DX001 (ip), vehicle: saline with Tween-80) is 557 % of control; the T/C (dose: 60.0 mg/kg/injection, schedule: Q01DX001 (oral), vehicle: other) was 408 % of control and 434 % of control and 185 % of control; the T/C (dose: 70.0 mg/kg/injection, schedule: Q01DX001 (ip), vehicle: other) is 433 % of control and 226 % of control; the T/C (dose: 71.0 mg/kg/injection, schedule: Q01DX001 (ip), vehicle: saline with Tween-80) was 156 % of control and 167 % of control; the T/C (dose: 80.0 mg/kg/injection, schedule: Q01DX001 (ip), vehicle: other) was 580 % of control and 171 % of control. Moreover, the T/C by setting is: (dose: 81.0 mg/kg/injection, schedule: Q01DX001 (ip), vehicle: other) 378 % of control [middle of 4 runs]; (dose: 81.0 mg/kg/injection, schedule: Q01DX001 (ip), vehicle: saline with Tween-80) 520 % of control and 719 % of control; (dose: 90.0 mg/kg/injection, schedule: Q01DX001 (ip), vehicle: other) 511 % of control; (dose: 90.0 mg/kg/injection, schedule: Q01DX001 (oral), vehicle: other) 372 % of control and 320 % of control; (dose: 91.0 mg/kg/injection, schedule: Q01DX001 (oral), vehicle: other) 336 % of control and 513 % of control and 303 % of control; (dose: 100.0 mg/kg/injection, schedule: Q01DX001 (ip), vehicle: other) 350 % of control. The T/C was 201 % of control and 229 % of control (dose: 107.0 mg/kg/injection, schedule: Q01DX001 (ip), vehicle: saline with Tween-80); 188 % of control (dose: 110.0 mg/kg/injection, schedule: Q01DX001 (ip), vehicle: other); 245 % of control (dose: 120.0 mg/kg/injection, schedule: Q01DX001 (ip), vehicle: other); 392 % of control and 248 % of control (dose: 160.0 mg/kg/injection, schedule: Q01DX001 (ip), vehicle: saline with Tween-80); 556 % of control (dose: 240.0 mg/kg/injection, schedule: Q01DX001 (ip), vehicle: saline with Tween-80); 194 % of control and 263 % of control (dose: 360.0 mg/kg/injection, schedule: Q01DX001 (ip), vehicle: saline with Tween-80). The T/C (dose: 540.0 mg/kg/injection, schedule: Q01DX001 (ip), vehicle: saline with Tween-80) is 173 % of control.

As to `O=NN(CCCl)C(=O)NC1CSCSC1`, the T/C is, setting by setting: (dose: 2.0 mg/kg/injection, schedule: Q01DX001 (ip), vehicle: other) 106 % of control and 102 % of control; under setting [4], 109 % of control; (dose: 4.5 mg/kg/injection, schedule: Q04DX004 (ip), vehicle: saline with Tween-80) 293 % of control; (dose: 7.0 mg/kg/injection, schedule: Q04DX004 (ip), vehicle: saline with Tween-80) 443 % of control; under setting [5], 156 % of control and 161 % of control; (dose: 11.0 mg/kg/injection, schedule: Q04DX004 (ip), vehicle: saline with Tween-80) 735 % of control. The T/C (dose: 16.5 mg/kg/injection, schedule: Q01DX001 (ip), vehicle: other) was 393 % of control and 311 % of control; the T/C (dose: 16.5 mg/kg/injection, schedule: Q04DX004 (ip), vehicle: saline with Tween-80) is 1060 % of control; the T/C under setting [6] is 490 % of control and 588 % of control.

Consider `CC[C@]1(O)C[C@H]2CN(CCc3c([nH]c4ccccc34)[C@@](C(=O)OC)(c3cc4c(cc3OC)N(C=O)[C@H]3[C@@](O)(C(=O)OC)[C@H](OC(C)=O)[C@]5(CC)C=CCN6CC[C@]43[C@@H]65)C2)C1`, for which the T/C (dose: 0.32 mg/kg/injection, schedule: Q01DX001 (ip), vehicle: saline) was 112 % of control; the T/C (dose: 0.75 mg/kg/injection, schedule: Q01DX001 (ip), vehicle: saline) is 108 % of control; the T/C (dose: 1.5 mg/kg/injection, schedule: Q01DX001 (ip), vehicle: saline) is 114 % of control; the T/C (dose: 1.6 mg/kg/injection, schedule: Q01DX001 (ip), vehicle: saline) is 109 % of control; the T/C (dose: 2.25 mg/kg/injection, schedule: Q01DX001 (ip), vehicle: saline) was 119 % of control.

On to `CCOC(=O)C1CCC(NC(=O)N(CCCl)N=O)CC1` (stereo unspecified), for which the T/C is, setting by setting: under setting [4], 113 % of control and 100 % of control; under setting [5], 116 % of control; (dose: 8.6 mg/kg/injection, schedule: Q04DX004 (ip), vehicle: gum acacia) 274 % of control and 275 % of control; (dose: 13.0 mg/kg/injection, schedule: Q04DX004 (ip), vehicle: gum acacia) 254 % of control; under setting [1], 162 % of control and 193 % of control; (dose: 20.0 mg/kg/injection, schedule: Q04DX004 (ip), vehicle: gum acacia) 837 % of control. The T/C (dose: 30.0 mg/kg/injection, schedule: Q04DX004 (ip), vehicle: gum acacia) was 1010 % of control; the T/C under setting [6] is 465 % of control and 302 % of control; the T/C (dose: 66.0 mg/kg/injection, schedule: Q01DX001 (ip), vehicle: other) is 663 % of control and 330 % of control.

Consider `CC(=O)OC1CCC(NC(=O)N(CCF)N=O)CC1` (stereo unspecified), for which the T/C was 175 % of control under setting [1]; 248 % of control under setting [2]; 441 % of control (dose: 32.0 mg/kg/injection, schedule: Q01DX001 (oral), vehicle: other); 473 % of control under setting [3].
